# Reference: patent US12679848B2, “Plasma kallikrein inhibitors” (Merck Sharp & Dohme LLC, priority 2020, dated 2026)
# Experiments:
# Human plasma kallikrein = target: T1, Human plasma kallikrein (Homo sapiens, UniProt P03952); experiment: Plasma Kallikrein Assay; format: biochemical; settings: purified Human plasma kallikrein 0.5 nM, substrate Acetyl-K-P-R-AFC, HEPES pH 7.4; read-out: PKal IC50
# T1 construct: yields a heavy chain (371 amino acids) and a light chain (248 amino acids); The active site of plasma kallikrein is contained in the light chain; purchased Enzyme Research Laboratories
# Procedure, shortened: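 Purified human plasma kallikrein at 0.5 nM final with substrate Acetyl-K-P-R-AFC at […], in 50 mM HEPES pH 7.4, 150 mM NaCl, 5 mM CaCl2, 0.1% PEG 8000, at rt or 37° C after enzyme-inhibitor equilibration. IC50 from four-parameter logistic fit of fluorescence rate; Ki via Cheng-Prusoff.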
# human factor XIa = human factor XIa (Homo sapiens, UniProt P03951); experiment: Factor XIa Assay; format: biochemical; settings: human factor XIa 0.04 nM, substrate GPR-AFC, 30 min pre-incubation, 25° C., pH 7.4; read-out: FXIa IC50
# Sequence of human factor XIa (P03951 388-625 limits assumed): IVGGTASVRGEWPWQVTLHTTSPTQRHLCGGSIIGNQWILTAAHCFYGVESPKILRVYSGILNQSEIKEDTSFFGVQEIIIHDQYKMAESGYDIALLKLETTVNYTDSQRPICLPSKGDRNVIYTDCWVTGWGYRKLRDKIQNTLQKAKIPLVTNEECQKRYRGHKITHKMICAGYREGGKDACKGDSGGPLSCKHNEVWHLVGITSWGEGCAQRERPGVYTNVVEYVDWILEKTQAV
# Sequence of human factor XIa (P03951 19-387 partner limits assumed): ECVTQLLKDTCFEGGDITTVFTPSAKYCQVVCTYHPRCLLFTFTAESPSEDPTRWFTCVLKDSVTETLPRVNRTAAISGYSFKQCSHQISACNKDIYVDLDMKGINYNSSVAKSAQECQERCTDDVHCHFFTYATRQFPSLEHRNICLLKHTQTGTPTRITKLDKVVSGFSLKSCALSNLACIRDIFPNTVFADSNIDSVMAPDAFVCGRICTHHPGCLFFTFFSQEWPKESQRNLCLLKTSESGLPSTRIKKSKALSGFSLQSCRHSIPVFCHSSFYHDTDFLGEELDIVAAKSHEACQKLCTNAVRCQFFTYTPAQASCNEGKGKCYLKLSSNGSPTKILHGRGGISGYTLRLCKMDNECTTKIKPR
# T1 sequence (P03952 391-638 limits assumed): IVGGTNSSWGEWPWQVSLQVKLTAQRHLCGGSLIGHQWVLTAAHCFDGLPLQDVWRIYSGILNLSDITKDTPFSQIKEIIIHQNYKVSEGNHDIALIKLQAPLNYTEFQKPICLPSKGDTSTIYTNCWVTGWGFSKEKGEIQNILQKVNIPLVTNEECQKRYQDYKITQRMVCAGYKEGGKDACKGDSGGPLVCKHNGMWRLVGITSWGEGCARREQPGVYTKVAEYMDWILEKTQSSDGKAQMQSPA
# T1 sequence (P03952 20-390 partner limits assumed): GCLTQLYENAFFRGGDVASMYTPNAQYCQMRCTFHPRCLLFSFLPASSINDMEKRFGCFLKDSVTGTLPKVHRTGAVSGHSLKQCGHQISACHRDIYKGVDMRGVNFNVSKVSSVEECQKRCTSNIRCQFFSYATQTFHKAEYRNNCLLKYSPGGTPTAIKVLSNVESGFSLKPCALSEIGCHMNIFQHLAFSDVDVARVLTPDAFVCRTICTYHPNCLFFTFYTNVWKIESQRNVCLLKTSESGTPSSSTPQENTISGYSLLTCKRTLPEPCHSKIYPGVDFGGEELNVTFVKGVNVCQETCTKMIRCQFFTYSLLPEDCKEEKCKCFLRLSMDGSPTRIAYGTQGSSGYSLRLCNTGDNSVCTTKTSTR
IC50 (Human plasma kallikrein),IC50 (human factor XIa),SMILES
10.5 nM,4600 nM,"Nc1c(C(=O)N2CCC[C@@]3(C2)OC(=O)Nc2ccc(Cl)c(F)c23)cnn1CCOc1ccc(Cl)cc1 [Example 37, (R)-1'-(5-Amino-1-(2-(4-chlorophenoxy)ethyl)-1H-pyrazole-4-carbonyl)-6-chloro-5-fluorospiro[benzo[d][1,3]oxazine-4,3'-piperidin]-2(1H)-one]"
47 nM,1690 nM,"Cc1ccc(F)cc1-n1ncc(C(=O)N2CCC[C@@]3(C2)OC(=O)Nc2ccc(Cl)c(F)c23)c1N [Example 88, (R)-1'-(5-Amino-1-(5-fluoro-2-methylpheny1)-1H-pyrazole-4-carbonyl)-6-chloro-5-fluorospiro[benzo[d][1,3]oxazine-4,3'-piperidin]-2(1H)-one]"
0.5 nM,201 nM,"Cc1ccc(Cn2ncc(C(=O)N3CCC[C@@]4(C3)OC(=O)Nc3ccc(Cl)c(F)c34)c2N)cc1 [Example 7, (R)-1'-(5-Amino-1-(4-methylbenzyl)-1H-pyrazole-4-carbonyl)-6-chloro-5-fluorospiro[benzo[d][1,3]oxazine-4,3'-piperidin]-2(1H)-one]"
8 nM,599 nM,"Nc1c(C(=O)N2CCC[C@@]3(C2)OC(=O)Nc2ccc(Cl)c(F)c23)cnn1-c1ccnc2ccc(F)cc12 [Example 60, (R)-1'-(5-Amino-1-(6-fluoroquinolin-4-y1)-1H-pyrazole-4-carbonyl)-6-chloro-5-fluorospiro[benzo[d][1,3]oxazine-4,3'-piperidin]-2(1H)-one]"
17.3 nM,399 nM,"Nc1c(C(=O)N2CCC[C@@]3(C2)OC(=O)Nc2ccc(Cl)c(F)c23)cnn1-c1ccccc1C(F)(F)F [Example 77, (R)-1'-(5-Amino-1-(2-(trifluoromethyl)phenyl)-1H-pyrazole-4-carbonyl)-6-chloro-5-fluorospiro[benzo[d][1,3]oxazine-4,3'-piperidin]-2(1H)-one]"
10.1 nM,610 nM,"Nc1c(C(=O)N2CCC[C@@]3(C2)OC(=O)Nc2ccc(Cl)c(F)c23)cnn1-c1ccnc2ccccc12 [Example 103, (R)-1'-(5-Amino-1-(quinolin-4-yl)-1H-pyrazole-4-carbonyl)-6-chloro-5-fluorospiro[benzo[d][1,3]oxazine-4,3'-piperidin]-2(1H)-one]"
11.8 nM,1290 nM,"COc1ccc(Cl)cc1-n1ncc(C(=O)N2CCC[C@@]3(C2)OC(=O)Nc2ccc(Cl)c(F)c23)c1N [Example 94, (R)-1'-(5-Amino-1-(5-chloro-2-methoxyphenyl)-1H-pyrazole-4-carbonyl)-6-chloro-5-fluorospiro[benzo[d][1,3]oxazine-4,3'-piperidin]-2(1H)-one]"
28.9 nM,2940 nM,"Nc1c(C(=O)N2CCC[C@@]3(C2)OC(=O)Nc2ccc(Cl)c(F)c23)cnn1C12CC(C1)C2 [Example 19, (R)-1'-(5-Amino-1-(bicyclo[1.1.1]pentan-1-y1)-1H-pyrazole-4-carbonyl)-6-chloro-5-fluorospiro[benzo[d][1,3]oxazine-4,3'-piperidin]-2(1H)-one]"
35.5 nM,862 nM,"Nc1c(C(=O)N2CCC[C@@]3(C2)OC(=O)Nc2ccc(Cl)c(F)c23)cnn1-c1ccccc1Br [Example 83, (R)-1'-(5-Amino-1-(2-bromophenyl)-1H-pyrazole-4-carbonyl)-6-chloro-5-fluorospiro[benzo[d][1,3]oxazine-4,3'-piperidin]-2(1H)-one]"
1.2 nM,293 nM,"COc1cccc(Cn2ncc(C(=O)N3CCC[C@@]4(C3)OC(=O)Nc3ccc(Cl)c(F)c34)c2N)c1 [Example 39, (R)-1'-(5-Amino-1-(3-methoxybenzyl)-1H-pyrazole-4-carbonyl)-6-chloro-5-fluorospiro[benzo[d][1,3]oxazine-4,3'-piperidin]-2(1H)-one]"
1 nM,95 nM,"Nc1c(C(=O)N2CCC[C@@]3(C2)OC(=O)Nc2ccc(Cl)c(F)c23)cnn1C(c1ccccc1)C(F)(F)F (single isomer, unassigned) [Example 122, (R)-1'-(5-Amino-1-((R or S)-2,2,2-trifluoro-1-phenylethyl)-1H-pyrazole-4-carbonyl)-6-chloro-5-fluorospiro[benzo[d][1,3]oxazine-4,3'-piperidin]-2(1H)-one]"
11.4 nM,746 nM,"CN(C)c1ccccc1Cn1ncc(C(=O)N2CCC[C@@]3(C2)OC(=O)Nc2ccc(Cl)c(F)c23)c1N [Example 41, (R)-1'-(5-Amino-1-(2-(dimethylamino)benzyl)-1H-pyrazole-4-carbonyl)-6-chloro-5-fluorospiro[benzo[d][1,3]oxazine-4,3'-piperidin]-2(1H)-one]"
13.5 nM,1480 nM,"Nc1c(C(=O)N2CCC[C@@]3(C2)OC(=O)Nc2ccc(Cl)c(F)c23)cnn1-c1cccc(C(=O)O)c1 [Example 68, (R)-3-(5-Amino-4-(6-chloro-5-fluoro-2-oxo-1,2-dihydrospiro[benzo[d][1,3]oxazine-4,3'-piperidine]-1'-carbonyl)-1H-pyrazol-1-yl)benzoic acid]"
80.3 nM,2990 nM,"Cc1ccc(-n2ncc(C(=O)N3CCC[C@@]4(C3)OC(=O)Nc3ccc(Cl)c(F)c34)c2N)cc1 [Example 111, (R)-1'-(5-Amino-1-(p-toly1)-1H-pyrazole-4-carbonyl)-6-chloro-5-fluorospiro[benzo[d][1,3]oxazine-4,3'-piperidin]-2(1H)-one]"
30.6 nM,1310 nM,"COc1c(F)cc(F)cc1-n1ncc(C(=O)N2CCC[C@@]3(C2)OC(=O)Nc2ccc(Cl)c(F)c23)c1N [Example 101, (R)-1'-(5-Amino-1-(3,5-difluoro-2-methoxyphenyl)-1H-pyrazole-4-carbonyl)-6-chloro-5-fluorospiro[benzo[d][1,3]oxazine-4,3'-piperidin]-2(1H)-one]"
9.5 nM,562 nM,"Nc1c(C(=O)N2CCC[C@@]3(C2)OC(=O)Nc2ccc(Cl)c(F)c23)cnn1-c1ccnc2c(F)cccc12 [Example 104, (R)-1'-(5-Amino-1-(8-fluoroquinolin-4-y1)-1H-pyrazole-4-carbonyl)-6-chloro-5-fluorospiro[benzo[d][1,3]oxazine-4,3'-piperidin]-2(1H)-one]"
13.5 nM,2250 nM,"CC(C)(C)n1ncc(C(=O)N2CCC[C@@]3(C2)OC(=O)Nc2ccc(Cl)c(F)c23)c1N [Example 23, (R)-1'-(5-Amino-1-(tert-butyl)-1H-pyrazole-4-carbonyl)-6-chloro-5-fluorospiro[benzo[d][1,3]oxazine-4,3'-piperidin]-2(1H)-one]"
7.9 nM,705 nM,"Nc1c(C(=O)N2CCC[C@@]3(C2)OC(=O)Nc2ccc(Cl)c(F)c23)cnn1CC1(F)CC1 [Example 29, (R)-1'-(5-Amino-1-((1-fluorocyclopropyl)methyl)-1H-pyrazole-4-carbonyl)-6-chloro-5-fluorospiro[benzo[d][1,3]oxazine-4,3'-piperidin]-2(1H)-one]"
0.9 nM,74 nM,"Nc1c(C(=O)N2CCC[C@@]3(C2)OC(=O)Nc2ccc(Cl)c(F)c23)cnn1C(c1ccccc1)C(F)(F)F (single isomer, unassigned) [Example 123]"
2.9 nM,112 nM,"Nc1c(C(=O)N2CCC[C@@]3(C2)OC(=O)Nc2ccc(Cl)c(F)c23)cnn1C1(c2ccc(F)cc2)CC1 [Example 28, (R)-1'-(5-Amino-1-(1-(4-fluorophenyl)cyclopropyl)-1H-pyrazole-4-carbonyl)-6-chloro-5-fluorospiro[benzo[d][1,3]oxazine-4,3'-piperidin]-2(1H)-one]"
8.4 nM,378 nM,"Nc1c(C(=O)N2CCC[C@@]3(C2)OC(=O)Nc2ccc(Cl)c(F)c23)cnn1-c1ccc(C(=O)O)cc1 [Example 74, (R)-4-(5-Amino-4-(6-chloro-5-fluoro-2-oxo-1,2-dihydrospiro[benzo[d][1,3]oxazine-4,3'-piperidine]-l'-carbonyl)-1H-pyrazol-1-yl)benzoic acid]"
22.5 nM,316 nM,"Nc1c(C(=O)N2CCC[C@@]3(C2)OC(=O)Nc2ccc(Cl)c(F)c23)cnn1-c1ccncc1Cl [Example 73, (R)-1'-(5-Amino-1-(3-chloropyridin-4-y1)-1H-pyrazole-4-carbonyl)-6-chloro-5-fluorospiro[benzo[d][1,3]oxazine-4,3'-piperidin]-2(1H)-one]"
24 nM,1000 nM,"CC1(n2ncc(C(=O)N3CCC[C@@]4(C3)OC(=O)Nc3ccc(Cl)c(F)c34)c2N)CCS(=O)(=O)C1 (single isomer, unassigned) [Example 118, (R)-1'-(5-Amino-1-((R or S)-3-methyl-1,1-dioxidotetrahydrothiophen-3-y1)-1H-pyrazole-4-carbonyl)-6-chloro-5-fluorospiro[benzo[d][1,3]oxazine-4,3'-piperidin]-2(1H)-one]"
5.8 nM,525 nM,"Nc1c(C(=O)N2CCC[C@@]3(C2)OC(=O)Nc2ccc(Cl)c(F)c23)cnn1-c1cccc2c1OC(F)(F)O2 [Example 91, (R)-1'-(5-Amino-1-(2,2-difluorobenzo[d][1,3]dioxol-4-y1)-1H-pyrazole-4-carbonyl)-6-chloro-5-fluorospiro[benzo[d][1,3]oxazine-4,3'-piperidin]-2(1H)-one]"
42.5 nM,1750 nM,"Cc1ncccc1-n1ncc(C(=O)N2CCC[C@@]3(C2)OC(=O)Nc2ccc(Cl)c(F)c23)c1N [Example 61, (R)-1'-(5-Amino-1-(2-methylpyridin-3-y1)-1H-pyrazole-4-carbonyl)-6-chloro-5-fluorospiro[benzo[d][1,3]oxazine-4,3'-piperidin]-2(1H)-one]"
